Laboratory results from patent US20230391752A1, “PYRROLIDINE-3-CARBOXAMIDE DERIVATIVES AND RELATED USES” (Chulalongkorn University, priority 2020, published 2023).

Experiments:
[1] = molecular target: HBV core protein variant T33N (Hepatitis B virus genotype D subtype ayw, UniProt P03146, T33N); test: Anti-HBV activity in core protein variants: T33N; assay type: cell-based; conditions: relative to the wild type construct
[2] = molecular target: T1, HBV construct U95551 (wild-type) (Hepatitis B virus genotype D subtype ayw, UniProt P03146); assay type: cell-based; conditions: relative to the wild type construct
T1 construct: expressed in transfected cells; host or cells: HepG2

[3] = molecular target: HBV core protein variant D29G (Hepatitis B virus genotype D subtype ayw, UniProt P03146, D29G); test: Anti-HBV activity in core protein variants: D29G; assay type: cell-based; conditions: relative to the wild type construct
[4] = molecular target: HBV core protein variant T109M (Hepatitis B virus genotype D subtype ayw, UniProt P03146, T109M); test: Anti-HBV activity in core protein variants: T109M; assay type: cell-based; conditions: relative to the wild type construct
[5] = test system: HBV genotype D; test: HBV-infected primary human hepatocytes (PHH); assay type: cell-based, Hepatitis B virus
Experimental: Primary human hepatocytes (PHH) were infected with HBV genotype D produced from HepG2.2.15 cell line on day 1 after plating. Subsequently, the PHH were treated with various concentrations of compounds into 2 different treatment schemes. For treatment scheme 1, the compounds were added into PHH simultaneously with infection media, and incubated for additional 6 days. For treatment scheme 2, the compounds were added into PHH at day 3 after infection, and further incubated for 6 days. After treatment, the cell culture supernatants were collected for the determinations of HBV DNA by qPCR, pgRNA by RT-PCR, HBsAg and HBeAg by ELISA, and cell viability by CCK-8. The cells were harvested for detection of intracellular cccDNA by southern blot.

[6] = test system: HBV; test: In vitro anti-HBV activity in HepG2.2.15 cell line (intracellular HBV DNA by qPCR at 1 μM); assay type: cell-based; conditions: Hepatitis B virus, 144 h; HepG2.2.15 cells, 1 μM compound, 6 days, intracellular HBV DNA as percentage compared to vehicle control (0.5% DMSO)
How it was run: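 Intracellular HBV DNA was quantified by qPCR and given as percent of vehicle (0.5% DMSO), grouped into letter ranges. Stably transfected HepG2.2.15 cells had 6 days of exposure to 1 μM compound, with medium and compound renewed after day 3.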

[7] = Cytotoxicity (MTT) in HepG2.2.15 cells; assay type: cell-based; conditions: human, 6 days treatment, read-out: HepG2.1.15 cytotoxicity (CC50)
How it was run: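 Adhered HepG2.2.15 cells were exposed to compounds for 6 days, then given […] MTT in serum-free medium for 2 h. Formazan dissolved in DMSO was read at 570 nm. CC50 (50% cell death) came from four-parameter fitting of viability versus concentration.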

[8] = test system: HBV; test: Effect on intrahepatic HBV DNA levels in HepG2.2.15 cells (EC50); assay type: cell-based; conditions: Hepatitis B virus, 144 h, 6 days, intrahepatic HBV DNA by qPCR, read-out: Anti-HBV DNA (EC50)
How it was run: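 Over 6 days at 37° C., HepG2.2.15 cells were treated with compound in 10% FCS medium, refreshed with compound after day 3. Intracellular HBV DNA was quantified by qPCR from cell lysates, and EC50 fitted by nonlinear regression relative to no-drug controls.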

[9] = molecular target: HBV core protein variant I105T (Hepatitis B virus genotype D subtype ayw, UniProt P03146, I105T); test: Anti-HBV activity in core protein variants: I105T; assay type: cell-based; conditions: relative to the wild type construct
[10] = Pharmacokinetic study in dogs; assay type: in vivo, male Beagle dogs
Experimental: (§1) Test compounds were administered to male Sprague-Dawley rats and male Beagle dogs by oral (PO) and intravenous (TV) administration. For TV dosing, test compounds were dosed at 0.2 to 0.5 mg/kg using a formulation of 10% dimethyl sulfoxide in 20% hydroxypropyl beta-cyclodextrin solution via IV bolus. For PO dosing, test compounds were dosed at 0.3 to 2.0 mg/kg using a formulation of 40% polyethylene glycol 400 in water via oral gavage. Blood samples were collected at pre-dose and various time points up to 24 hours post-dose, and centrifuged to obtain plasma samples. The plasma concentrations of test compounds were quantified by LC-MS/MS methods. The relevant pharmacokinetic parameters (Table D) were calculated via non-compartmental analysis using WinNonlin (Phoenix™, version 8.3).

[11] = molecular target: HBV core protein variant T109I (Hepatitis B virus genotype D subtype ayw, UniProt P03146, T109I); test: Anti-HBV activity in core protein variants: T109I; assay type: cell-based; conditions: relative to the wild type construct
[12] = molecular target: HBV core protein variant Y118F (Hepatitis B virus genotype D subtype ayw, UniProt P03146, Y118F); test: Anti-HBV activity in core protein variants: Y118F; assay type: cell-based; conditions: relative to the wild type construct
[13] = molecular target: T2, HBV core protein (Cp149) (Hepatitis B virus genotype D subtype ayw, UniProt P03146); test: HBV capsid assembly by size exclusion chromatography (SEC); assay type: biochemical; conditions: 50 μM compound, 15 μM Cp149, 16 hours at 21° C.
T2 construct: HBV core C-terminally truncated protein (HBV Cp149); made in house

[14] = molecular target: HBV core protein variant F23Y (Hepatitis B virus genotype D subtype ayw, UniProt P03146, F23Y); test: Anti-HBV activity in core protein variants: F23Y; assay type: cell-based; conditions: relative to the wild type construct
[15] = Pharmacokinetic study in rats; assay type: in vivo, male Sprague-Dawley rats
Experimental: as §1

[16] = test system: HBV genotypes A to D; assay type: cell-based; conditions: transfected HepG2 cells
[17] = molecular target: T3, HBV capsid (Hepatitis B virus genotype D subtype ayw, UniProt P03146); test: Mechanistic study in stably HBV expressed HepG2.2.15 cells (capsid, encapsidated DNA/RNA, core protein blots); assay type: cell-based; conditions: HepG2.2.15, 6 days
T3 construct: expressed in transfected cells; host or cells: HepG2.2.15
Experimental: The stably HBV expressed HepG2.2.15 cells were treated with test compounds, at various concentrations in culture medium, at 37° C. for three days. After that the medium was removed and fresh medium containing the compound was added to the cells for another 3 days. After 6 days of treatment, cellular lysates from the treated cells were assessed by non-denatured agarose gel electrophoresis. HBV capsid was detected by western blot with monoclonal anti-HBV core. Encapsidated HBV DNA and RNA were detected by southern blot and northern blot. Intracellular HBV core protein was assessed by western Blot with a monoclonal mouse anti-HBV core. β-actin protein assessed by western blot was used as an internal control.

Q: Which “Fold change in EC50, T33N” value [1] does the source give for `Cc1cc(NC(=O)[C@H]2CCN(C(=O)c3ccc(-c4c(C)ncnc4C)[nH]3)[C@H]2C)ccc1F` [Example 149, (2S,3S)-1-(5-(4,6-dimethylpyrimidin-5-yl)-1H-pyrrole-2-carbonyl)-N-(4-fluoro-3-methylphenyl)-2-methylpyrrolidine-3-carboxamide] here?
A: D (D>15)

Q: And the “Fold change in EC50, U95551 (wild-type)” value [2]?
A: B (B=1-5)

Q: And the “Fold change in EC50, D29G” value [3]?
A: B (B=1-5)

Q: What about the “Fold change in EC50, T109M” value [4] of the same compound?
A: A (A<1)

Q: And the “HBeAg in PHH” value ([5]; treatment scheme 1)?
A: inhibited

Q: And the “HBsAg in PHH” value ([5]; treatment scheme 1)?
A: inhibited

Q: What about the “HBV DNA in PHH” value ([5]; treatment scheme 1 (compound added simultaneously with infection media, 6 days)) of the same compound?
A: inhibited

Q: And the “cccDNA establishment in PHH” value ([5]; treatment scheme 1, southern blot)?
A: inhibited

Q: And the activity at 1 µM [6]?
A: < 45%

Q: And the CC50 at 6 days [7]?
A: 10 to 25 µM

Q: And the EC50 [8]?
A: < 0.05 µM

Q: What about the “Fold change in EC50, I105T” value [9] of the same compound?
A: B (B=1-5)

Q: What about the “F (%) Dog” value ([10]; PO 0.3 to 2.0 mg/kg) of the same compound?
A: 63%

Q: And the half-life ([10]; male, Beagle, dog, plasma, read-out: t1/2 (h) Dog (converted))?
A: 4.5 h

Q: And the clearance ([10]; male, Beagle, plasma, dog, IV 0.2 to 0.5 mg/kg, read-out: CL (mL/min/kg) Dog)?
A: 5.1 mL/min/kg

Q: And the Vd ([10]; male, Beagle, plasma, dog, IV 0.2 to 0.5 mg/kg, read-out: Vd,ss (L/kg) Dog)?
A: 1.3 L/kg

Q: What about the “Fold change in EC50, T109I” value [11] of the same compound?
A: A (A<1)

Q: And the “Fold change in EC50, Y118F” value [12]?
A: A (A<1)

Q: What about the “Size of induced capsids based on SEC retention times” value [13] of the same compound?
A: induced capsids similar in size to NVR 3-778

Q: What about the “Fold change in EC50, F23Y” value [14] of the same compound?
A: C (C=5-15)

Q: What about the “CL (mL/min/kg) Rat” value ([15]; IV 0.2 to 0.5 mg/kg) of the same compound?
A: 20.0 mL/min/kg

Q: What about the “F (%) Rat” value ([15]; PO 0.3 to 2.0 mg/kg) of the same compound?
A: 44%

Q: What about the Vd ([15]; male, Sprague-Dawley, plasma, rat, IV 0.2 to 0.5 mg/kg, read-out: Vd,ss (L/kg) Rat) of the same compound?
A: 2.92 L/kg

Q: And the half-life ([15]; male, Sprague-Dawley, rat, plasma, read-out: t1/2 (h) Rat (converted))?
A: 6.5 h

Q: What about the “Anti-HBV activity across HBV genotypes” value [16] of the same compound?
A: effective across all HBV genotypes tested (A to D)

Q: For `CCOC(=O)C1=C(CN2CCOCC2)NC(c2nccs2)=NC1c1ccc(F)cc1Br` (centres unmarked) [GLS4, reference compound], which “Fold change in EC50, T33N” value [1] is on record?
A: D (D>15)

Q: What about the “Fold change in EC50, U95551 (wild-type)” value [2] of the same compound?
A: B (B=1-5)

Q: And the “Fold change in EC50, D29G” value [3]?
A: B (B=1-5)

Q: What about the “Fold change in EC50, T109M” value [4] of the same compound?
A: B (B=1-5)

Q: And the “Fold change in EC50, I105T” value [9]?
A: B (B=1-5)

Q: And the “Fold change in EC50, T109I” value [11]?
A: C (C=5-15)

Q: And the “Fold change in EC50, Y118F” value [12]?
A: B (B=1-5)

Q: What about the “Fold change in EC50, F23Y” value [14] of the same compound?
A: C (C=5-15)

Q: What about the “HBV capsid (formation of DNA- and RNA-devoid capsid)” value ([17]; various concentrations) of the same compound?
A: induced formation of DNA- and RNA-devoid capsid

Q: What about the “Intracellular HBV core protein level” value ([17]; western blot) of the same compound?
A: reduced intracellular HBV core protein level in the concentration-dependent manner
